Values of other authors in paper PMC9851200, “Multiparameter phenotypic screening for endogenous TFEB and TFE3 translocation identifies novel chemical series modulating lysosome function” (Autophagy, 2022).
Like-named read-outs stand apart in the source and are kept apart here.

What was measured:
Design in all cases: method as in original PKIS2 published data
[1] = tested on: kinases (KINOMEscan panel); conditions: Published KINOMEscan, ref original PKIS2 published data, cited from earlier work
[2] = molecular target: kinases (KINOMEscan panel) (Homo sapiens, UniProt Q9H4B4); conditions: kinase PLK3; Published KINOMEscan; ref original PKIS2 published data; cited from earlier work
kinases (KINOMEscan panel) (Homo sapiens, UniProt Q9H4B4), sequence (Q9H4B4 whole entry): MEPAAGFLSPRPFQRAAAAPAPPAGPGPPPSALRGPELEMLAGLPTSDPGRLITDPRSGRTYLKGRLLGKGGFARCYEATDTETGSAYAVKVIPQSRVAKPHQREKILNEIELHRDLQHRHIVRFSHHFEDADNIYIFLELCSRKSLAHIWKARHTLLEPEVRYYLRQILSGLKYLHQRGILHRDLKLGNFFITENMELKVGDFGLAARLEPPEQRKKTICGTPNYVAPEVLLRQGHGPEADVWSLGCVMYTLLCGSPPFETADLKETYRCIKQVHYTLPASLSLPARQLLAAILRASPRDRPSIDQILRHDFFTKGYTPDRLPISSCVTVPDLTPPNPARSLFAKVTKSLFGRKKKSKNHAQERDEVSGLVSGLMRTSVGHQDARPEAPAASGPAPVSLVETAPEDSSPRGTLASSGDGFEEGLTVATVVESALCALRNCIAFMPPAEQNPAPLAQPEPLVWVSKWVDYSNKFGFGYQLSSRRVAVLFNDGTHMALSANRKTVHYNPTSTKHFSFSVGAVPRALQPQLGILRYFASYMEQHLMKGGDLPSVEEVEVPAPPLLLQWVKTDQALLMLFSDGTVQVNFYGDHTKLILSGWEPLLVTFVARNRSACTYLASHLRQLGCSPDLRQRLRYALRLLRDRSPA

[3] = molecular target: T1, kinases (KINOMEscan panel) (Homo sapiens, UniProt Q8TF76); conditions: HASPIN; Published KINOMEscan; ref original PKIS2 published data; cited from earlier work
T1 sequence (Q8TF76 1-798): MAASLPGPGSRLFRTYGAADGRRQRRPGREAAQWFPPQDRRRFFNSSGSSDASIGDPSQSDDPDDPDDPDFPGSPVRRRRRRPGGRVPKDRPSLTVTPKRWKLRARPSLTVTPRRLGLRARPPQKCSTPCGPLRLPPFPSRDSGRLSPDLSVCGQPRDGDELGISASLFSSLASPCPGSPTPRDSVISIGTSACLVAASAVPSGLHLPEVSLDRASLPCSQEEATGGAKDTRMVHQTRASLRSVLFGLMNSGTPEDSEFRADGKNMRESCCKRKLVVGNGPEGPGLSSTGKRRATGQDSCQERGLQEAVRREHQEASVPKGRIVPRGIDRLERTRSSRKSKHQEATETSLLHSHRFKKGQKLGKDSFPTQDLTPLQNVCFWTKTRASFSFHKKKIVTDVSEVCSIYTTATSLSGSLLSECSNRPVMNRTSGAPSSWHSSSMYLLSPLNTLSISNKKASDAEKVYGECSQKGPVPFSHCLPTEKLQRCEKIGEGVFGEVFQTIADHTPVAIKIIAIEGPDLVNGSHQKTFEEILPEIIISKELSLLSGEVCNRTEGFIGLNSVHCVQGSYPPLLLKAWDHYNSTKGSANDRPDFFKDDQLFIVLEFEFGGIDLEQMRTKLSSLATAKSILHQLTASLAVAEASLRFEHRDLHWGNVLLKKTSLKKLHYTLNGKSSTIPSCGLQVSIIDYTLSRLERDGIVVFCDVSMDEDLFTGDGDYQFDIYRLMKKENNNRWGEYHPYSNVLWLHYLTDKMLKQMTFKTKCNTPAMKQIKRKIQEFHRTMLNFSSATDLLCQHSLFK

[4] = molecular target: T2, kinases (KINOMEscan panel) (Homo sapiens, UniProt Q6ZWH5); conditions: Published KINOMEscan; ref original PKIS2 published data; cited from earlier work
T2 sequence (Q6ZWH5 1-1172): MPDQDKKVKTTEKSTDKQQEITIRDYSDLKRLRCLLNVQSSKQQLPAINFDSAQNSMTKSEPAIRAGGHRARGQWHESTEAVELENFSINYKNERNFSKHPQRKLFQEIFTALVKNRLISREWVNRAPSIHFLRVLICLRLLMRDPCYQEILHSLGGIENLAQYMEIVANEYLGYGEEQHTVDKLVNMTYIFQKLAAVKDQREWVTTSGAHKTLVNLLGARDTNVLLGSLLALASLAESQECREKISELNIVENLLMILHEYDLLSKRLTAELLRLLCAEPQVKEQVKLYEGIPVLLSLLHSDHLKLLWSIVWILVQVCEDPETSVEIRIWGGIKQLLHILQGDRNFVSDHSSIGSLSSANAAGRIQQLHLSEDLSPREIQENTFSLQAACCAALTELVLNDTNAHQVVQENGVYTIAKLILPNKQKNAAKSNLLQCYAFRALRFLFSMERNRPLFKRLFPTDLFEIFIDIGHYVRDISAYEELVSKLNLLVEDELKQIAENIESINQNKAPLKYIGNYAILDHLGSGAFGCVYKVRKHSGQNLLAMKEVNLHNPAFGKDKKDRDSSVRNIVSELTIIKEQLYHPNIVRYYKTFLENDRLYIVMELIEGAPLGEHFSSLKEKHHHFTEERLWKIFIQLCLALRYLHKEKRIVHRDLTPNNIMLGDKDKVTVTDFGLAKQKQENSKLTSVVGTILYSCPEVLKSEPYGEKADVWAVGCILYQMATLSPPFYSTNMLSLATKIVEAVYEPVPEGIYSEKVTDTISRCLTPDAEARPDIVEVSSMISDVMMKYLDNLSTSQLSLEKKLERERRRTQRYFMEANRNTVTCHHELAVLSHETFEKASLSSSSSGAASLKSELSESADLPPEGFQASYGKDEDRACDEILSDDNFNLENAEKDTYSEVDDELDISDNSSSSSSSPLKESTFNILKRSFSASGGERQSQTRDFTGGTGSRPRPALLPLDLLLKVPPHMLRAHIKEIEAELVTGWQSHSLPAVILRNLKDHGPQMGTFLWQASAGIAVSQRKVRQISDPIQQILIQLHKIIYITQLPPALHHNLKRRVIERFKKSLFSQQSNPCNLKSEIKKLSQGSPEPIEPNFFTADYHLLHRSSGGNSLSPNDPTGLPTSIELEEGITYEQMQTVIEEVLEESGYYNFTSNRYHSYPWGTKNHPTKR

[5] = molecular target: kinases (KINOMEscan panel) (Homo sapiens, UniProt O00750); conditions: PIK3C2B; Published KINOMEscan; ref original PKIS2 published data; cited from earlier work
kinases (KINOMEscan panel) (Homo sapiens, UniProt O00750), sequence (O00750 whole entry): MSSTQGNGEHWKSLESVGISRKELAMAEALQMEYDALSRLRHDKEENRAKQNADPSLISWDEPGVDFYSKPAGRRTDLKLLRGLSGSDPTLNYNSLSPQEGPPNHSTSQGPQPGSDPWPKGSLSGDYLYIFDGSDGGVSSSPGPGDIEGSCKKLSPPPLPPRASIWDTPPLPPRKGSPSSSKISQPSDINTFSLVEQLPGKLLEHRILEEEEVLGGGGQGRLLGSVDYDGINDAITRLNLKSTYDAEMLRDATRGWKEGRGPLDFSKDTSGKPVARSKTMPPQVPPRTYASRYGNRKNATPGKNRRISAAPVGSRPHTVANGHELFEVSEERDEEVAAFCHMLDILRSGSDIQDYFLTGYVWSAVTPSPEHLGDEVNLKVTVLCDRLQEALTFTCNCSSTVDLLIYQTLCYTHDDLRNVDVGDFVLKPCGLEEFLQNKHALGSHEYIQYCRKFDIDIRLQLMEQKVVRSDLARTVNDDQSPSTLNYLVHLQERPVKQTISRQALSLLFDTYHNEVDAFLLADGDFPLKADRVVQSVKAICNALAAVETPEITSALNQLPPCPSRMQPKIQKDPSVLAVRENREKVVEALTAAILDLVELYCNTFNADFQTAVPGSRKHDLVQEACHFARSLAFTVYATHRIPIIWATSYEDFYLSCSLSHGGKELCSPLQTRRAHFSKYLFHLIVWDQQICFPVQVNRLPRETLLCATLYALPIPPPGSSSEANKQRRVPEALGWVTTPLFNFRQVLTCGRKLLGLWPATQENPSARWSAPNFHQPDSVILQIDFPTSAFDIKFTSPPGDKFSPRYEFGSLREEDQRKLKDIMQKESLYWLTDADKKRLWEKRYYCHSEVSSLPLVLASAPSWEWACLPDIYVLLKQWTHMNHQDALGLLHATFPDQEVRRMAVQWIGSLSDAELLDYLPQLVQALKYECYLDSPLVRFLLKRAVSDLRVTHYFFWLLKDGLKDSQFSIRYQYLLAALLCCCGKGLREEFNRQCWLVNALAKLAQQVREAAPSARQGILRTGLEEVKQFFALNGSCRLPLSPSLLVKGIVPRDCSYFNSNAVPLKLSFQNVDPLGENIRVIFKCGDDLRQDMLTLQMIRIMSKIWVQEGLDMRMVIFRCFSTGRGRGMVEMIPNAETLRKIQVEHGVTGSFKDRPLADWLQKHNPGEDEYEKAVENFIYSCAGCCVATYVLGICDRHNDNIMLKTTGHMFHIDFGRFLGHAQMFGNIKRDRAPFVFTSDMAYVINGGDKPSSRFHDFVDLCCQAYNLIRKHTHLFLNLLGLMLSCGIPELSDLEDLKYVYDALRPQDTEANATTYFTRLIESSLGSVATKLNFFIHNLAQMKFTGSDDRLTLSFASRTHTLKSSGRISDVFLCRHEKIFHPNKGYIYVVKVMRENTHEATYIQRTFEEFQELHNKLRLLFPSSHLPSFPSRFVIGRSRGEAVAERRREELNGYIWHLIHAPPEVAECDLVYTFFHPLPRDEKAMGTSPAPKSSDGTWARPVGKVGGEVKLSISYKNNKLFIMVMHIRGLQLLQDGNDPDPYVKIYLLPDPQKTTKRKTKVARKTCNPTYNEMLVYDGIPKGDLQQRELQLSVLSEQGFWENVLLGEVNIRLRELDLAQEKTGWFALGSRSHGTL

[6] = molecular target: kinases (KINOMEscan panel) (Homo sapiens, UniProt P27448); conditions: MARK3; Published KINOMEscan; ref original PKIS2 published data; cited from earlier work
kinases (KINOMEscan panel) (Homo sapiens, UniProt P27448), sequence (P27448 whole entry): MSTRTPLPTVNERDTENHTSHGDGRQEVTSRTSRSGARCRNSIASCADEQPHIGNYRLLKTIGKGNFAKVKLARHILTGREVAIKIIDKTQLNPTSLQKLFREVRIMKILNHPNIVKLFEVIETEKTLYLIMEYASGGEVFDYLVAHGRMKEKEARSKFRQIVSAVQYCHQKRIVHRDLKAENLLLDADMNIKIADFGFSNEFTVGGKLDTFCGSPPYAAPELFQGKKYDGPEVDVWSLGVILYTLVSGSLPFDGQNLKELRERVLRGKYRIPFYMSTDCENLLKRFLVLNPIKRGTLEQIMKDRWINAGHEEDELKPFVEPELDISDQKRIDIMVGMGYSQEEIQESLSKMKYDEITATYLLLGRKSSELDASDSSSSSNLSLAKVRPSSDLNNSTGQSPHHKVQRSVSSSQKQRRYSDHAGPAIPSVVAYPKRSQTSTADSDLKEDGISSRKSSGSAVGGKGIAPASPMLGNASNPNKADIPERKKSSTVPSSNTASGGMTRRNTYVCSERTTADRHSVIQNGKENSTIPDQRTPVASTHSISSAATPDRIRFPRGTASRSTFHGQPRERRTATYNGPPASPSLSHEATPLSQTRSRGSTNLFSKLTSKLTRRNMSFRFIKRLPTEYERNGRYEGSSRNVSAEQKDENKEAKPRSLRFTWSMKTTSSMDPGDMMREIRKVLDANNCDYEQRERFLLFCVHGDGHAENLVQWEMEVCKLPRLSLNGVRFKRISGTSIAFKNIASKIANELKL

For `Cc1cccc(-c2nc(Nc3ccncc3)c3ccccc3n2)n1` [NK215], the “KINOMEscan PRKAA2” value [1] is given as 0, the “KINOMEscan PRKAA2” value ([1]; kinase PRKAA2) is given as 12 and the “KINOMEscan PLK3” value [2] is given as 0. The “KINOMEscan HASPIN” value [3] was 26, the “KINOMEscan NEK10” value [4] was 0 and the “KINOMEscan PIK3C2B” value [5] was 0. The “KINOMEscan MARK3” value [6] was 32.
